{"source": "paper PMC11904221", "about": "(EMBO Molecular Medicine, 2025)", "key": {"in vitro [1]": {"assay": "in vitro"}, "[2]": {"details": "pH 7.4, aqueous buffer"}, "[3]": {"details": "for microsomal CLint: liver microsomes"}, "[4]": {"assay": "Time-dependent stability in water and in plasma on storage, LC-MS", "assay_type": "physicochemical", "details": "read-out: % of area at T=0", "description": "The standard deviations were below the acceptable values (<15%) showing that the accuracy is correct and compliant with standard quantification protocols. […]\nthe linearity of the method. […]\nfor concentrations below 0.5 µM.\nThe second step of the study consisted to analyse the stability of the peptide in order to evaluate the feasibility of the quantification of APLN-DM in the samples obtained in vivo.\nQuantification in the plasma after protein precipitation\nBefore the injection for LC-MS analysis, the plasmas had to be processed for elimination of major proteins, which can disturb the analysis. Proteins were precipitated by an organic solvent. […]\nThe second method was adapted from the protocol described by O. Chertov et al. (Proteomics 2004, 4, 1195- […]\n1203). […] 7 µl of this solution were […]\nadded to 70 µl plasma or 70 µl water (control).\n10 µl of each sample were mixed to 20 µl water, vortexed, mixed to 45 µl d’acetonitrile + 0.1% trifluoroacetic acid, sonicated, vortexed, centrifuged for 15 minutes. The supernatant was evaporated and the pellet was re-suspended in 30 µl water. The 2 samples (peptide in plasma or in water) were injected in LC-MS according to the conditions previously established.\nWith this method, the recovery of APLN-DM in the plasma after protein precipitation was sufficient.\nThe coefficient of variation was acceptable. This method was used for the stability study in the plasma.\n7 µl were added to 3 samples […]\nof 70 µl plasma or 70 µl water.\nSix solutions were obtained:\n-W RT : solution in water stored at room temperature\n-W 4°C : solution in water stored at 4°C\n-W -18°C : solution in water stored at -18°C\n-P RT : solution in plasma stored at room temperature\n-P 4°C : solution in plasma stored at 4°C\n-P -18°C : solution in plasma stored at -18°C. […]\nprocessed for protein extraction (according to the method previously described), and then injected in […]\nLC-MS for APLN-DM quantification. For […]\neach sample, % were calculated according to the area obtained at T=0 which correspo nd to 100%."}, "in vitro [5]": {"assay": "in vitro", "remark": "listed apart in the source"}, "in vivo": {"assay": "in vivo", "details": "BALB/c, mouse, ip", "description": "Pharmacological profile of APLN-DM peptide\nMaximal Tolerated Dose (MTD) study of APLN -DM in mice\nSix groups comprising six Balb/C mice per group (3 males and 3 females) were assigned to the study. In each gender, one control group (1 Male (M)/1 female (F)) received the reference solution (vehicle) and 5 […]\nmg/kg (4M/4F), 2000 mg/kg (5M/5F) and 1500 mg/kg (6M/6F). APLN-DM peptide was administrated via intra-peritoneal (IP) single injection at day 1 followed by observation during 14 days. During the study, mortality, morbidity, general clinical signs and bod y weight were recorded. In the end of the study pathology and organ necropsy examination were performed. Thereby, APLN-DM peptide and vehicle were administered to mice according to Table-1 and their effects were analyzed according to Table-2.\nEach test item dose was administrated to 3 female and 3 male mice. The administration was performed IP at a dose volume of 10 ml/kg. Dosing was performed according to Figure-1 and each increase in dose pending on the outcome of the previous dose (results of clinical signs). The lag time between the increasing doses was approximately 48h.\nNo. (n=) Mouse# Treatment Dose Level administration administratio […]\nTable-1. Study design -1. […], […]\nStudy Day* Procedure Body Weight Clinical Mortality & Organ\nSign Morbidity observation\n2-14 - Twice weekly Once -\n15 Termination √ √ Gross pathology\nFigure 1 - Decisional tree for successive dosing for MTD determination […]\nAt study termination, body weight (Figure 2 and Figure 3) and gross pathology abnormalities were analyzed in all animals. Main pathological finding were blood clots in intestine and chest cavity. Treatment-related clinical adverse side effects (purple tail, lethargy, decreased motor activity) were observed also in groups treated either with 200, 500, 1000 and 1500 mg/kg. The tail recovered a normal color after 1 hour in all dose groups. […]\nabnormalities were detected in all male and female animals from these groups at the scheduled termination […]"}, "in vitro [6]": {"assay": "in vitro", "remark": "listed apart in the source"}, "[7]": {"details": "mouse"}}, "note": "Read-outs that look alike come from different tables or passages of the source. Where a SMILES comes first, the peptide text is derived from it."}
{"smiles": "CSCC[C@H](NC(=O)[C@@H]1CCCN1C(=O)CNC(=O)[C@H](CCCCN)NC(=O)[C@H](Cc1c[nH]cn1)NC(=O)[C@H](CO)NC(=O)[C@H](CC(C)C)NC(=O)[C@H](CCCNC(=N)N)NC(=O)[C@@H]1CCCN1C(=O)[C@H](CCCNC(=N)N)NC(=O)[C@H](CCC(N)=O)NC(=O)[C@H](CO)NC(=O)[C@H](CO)NC(=O)[C@H](Cc1ccccc1)NC(=O)[C@H](CCCCN)NC(=O)[C@H](CO)NC(=O)[C@H](CO)NC(=O)CNC(=O)CNC(=O)[C@H](CCC(N)=O)NC(=O)[C@H](Cc1c[nH]c2ccccc12)NC(=O)[C@@H]1CCCN1C(=O)CNC(=O)[C@@H]1CCCN1C(=O)CNC(=O)[C@H](CC(N)=O)NC(=O)[C@H](CCCNC(=N)N)NC(=O)[C@H](CO)NC(=O)CNC(=O)[C@H](CCCNC(=N)N)NC(=O)[C@@H]1CCCN1C(=O)[C@H](CCC(N)=O)NC(=O)[C@@H](NC(=O)[C@@H](N)CC(C)C)C(C)C)C(=O)N1CCC[C@H]1C(=O)N[C@@H](Cc1ccccc1)C(=O)O", "note": "[APLN-DM] (H-LVQPRGSRNGPGPWQGGSSKFSSQRPRLSHKGPMPF-OH)", "values": [{"measurement": "Half-life in human plasma", "setting": "in vitro [1]", "value": "> 18", "unit": "h"}, {"measurement": "Half-life, 1st", "setting": "in vitro [1]; human", "value": 21.173, "unit": "h"}, {"measurement": "Half-life, 2nd", "setting": "in vitro [1]; human", "value": 16.21, "unit": "h"}, {"measurement": "half-life at 1 µM", "setting": "in vitro [1]; human, plasma", "value": 18.7, "unit": "h"}, {"measurement": "remaining at 0.5 h", "setting": "in vitro [1]; human, plasma", "value": 99, "unit": "%"}, {"measurement": "remaining at 1 h", "setting": "in vitro [1]; human, plasma", "value": 98, "unit": "%"}, {"measurement": "remaining at 2 h", "setting": "in vitro [1]; human, plasma", "value": 93, "unit": "%"}, {"measurement": "solubility thermodynamic", "setting": "[2]", "value": 187, "unit": "µM"}, {"measurement": "clearance category", "setting": "[3]", "value": "high"}, {"measurement": "Half-life, 1st", "setting": "[3]; human", "value": 1.24, "unit": "h"}, {"measurement": "Half-life, 2nd", "setting": "[3]; human", "value": 1.14, "unit": "h"}, {"measurement": "Half-life, Mean", "setting": "[3]; human", "value": "> 1", "unit": "h"}, {"measurement": "microsomal CLint", "setting": "[3]; human", "value": "< 116", "unit": "µL/min/mg"}, {"measurement": "microsomal CLint", "setting": "[3]", "value": "< 116", "unit": "µL/min/mg"}, {"measurement": "remaining at 2 h", "setting": "[4]; P 4°C", "value": 51, "unit": "%"}, {"measurement": "remaining at 168 h", "setting": "[4]; P 4°C", "value": 6, "unit": "%"}, {"measurement": "remaining at 1 h", "setting": "[4]; P 4°C: in plasma, 4°C", "value": 66, "unit": "%"}, {"measurement": "remaining at 2 h", "setting": "[4]; P -18°C", "value": 66, "unit": "%"}, {"measurement": "remaining at 5 h", "setting": "[4]; P -18°C", "value": 114, "unit": "%"}, {"measurement": "remaining at 24 h", "setting": "[4]; P -18°C", "value": 86, "unit": "%"}, {"measurement": "remaining at 48 h", "setting": "[4]; P -18°C", "value": 97, "unit": "%"}, {"measurement": "remaining at 72 h", "setting": "[4]; P -18°C", "value": 89, "unit": "%"}, {"measurement": "remaining at 168 h", "setting": "[4]; P -18°C", "value": 12, "unit": "%"}, {"measurement": "remaining at 1 h", "setting": "[4]; P -18°C: in plasma, -18°C", "value": 75, "unit": "%"}, {"measurement": "remaining at 2 h", "setting": "[4]; P RT", "value": 17, "unit": "%"}, {"measurement": "remaining at 5 h", "setting": "[4]; P RT", "value": 13, "unit": "%"}, {"measurement": "remaining at 24 h", "setting": "[4]; P RT", "value": 8, "unit": "%"}, {"measurement": "remaining at 48 h", "setting": "[4]; P RT", "value": 14, "unit": "%"}, {"measurement": "remaining at 72 h", "setting": "[4]; P RT", "value": 7, "unit": "%"}, {"measurement": "remaining at 168 h", "setting": "[4]; P RT", "value": 22, "unit": "%"}, {"measurement": "remaining at 1 h", "setting": "[4]; P RT: in plasma, room temperature", "value": 21, "unit": "%"}, {"measurement": "% Protein bound, 1st", "setting": "in vitro [5]", "value": 26.1, "unit": "%"}, {"measurement": "% Protein bound, 2nd", "setting": "in vitro [5]", "value": 26.9, "unit": "%"}, {"measurement": "% Recovery, Mean", "setting": "in vitro [5]", "value": 93, "unit": "%"}, {"measurement": "fraction unbound at 4 h, 1e-05 M", "setting": "in vitro [5]; CD-1, mouse, plasma", "value": 0.74}, {"measurement": "MTD at 336 h", "setting": "in vivo; female", "value": 1000, "unit": "mg/kg"}, {"measurement": "MTD at 336 h", "setting": "in vivo; male", "value": 1500, "unit": "mg/kg"}, {"measurement": "% Protein bound, 1st", "setting": "in vitro [6]", "value": 56.8, "unit": "%"}, {"measurement": "% Protein bound, 2nd", "setting": "in vitro [6]", "value": 52.2, "unit": "%"}, {"measurement": "% Recovery, 1st", "setting": "in vitro [6]", "value": 123, "unit": "%"}, {"measurement": "% Recovery, 2nd", "setting": "in vitro [6]", "value": 125, "unit": "%"}, {"measurement": "% Recovery, Mean", "setting": "in vitro [6]", "value": 124, "unit": "%"}, {"measurement": "fraction unbound at 4 h, 1e-05 M", "setting": "in vitro [6]; human, plasma", "value": 0.46}, {"measurement": "Half-life, 1st", "setting": "[7]", "value": 0.645, "unit": "h"}, {"measurement": "Half-life, 2nd", "setting": "[7]", "value": 1.867, "unit": "h"}, {"measurement": "half-life", "setting": "[7]; liver microsomes", "value": "> 1", "unit": "h"}, {"measurement": "microsomal CLint", "setting": "[7]; liver microsomes", "value": "< 116", "unit": "µL/min/mg"}]}
